Data from patent publication US9643951B2, “Compound having somatostatin receptor agonistic activity and pharmaceutical use thereof” (ONO PHARMACEUTICAL CO., LTD., priority 2013, dated 2017).

What was measured:
[1] = Human hepatic microsome stability test; assay type: in vitro ADME; conditions: human hepatic microsomes 1 mg/mL; 60 minutes; test compound 0.001 mmol/L; 37° C.
Protocol: Human Hepatic Microsome Stability Test
To a reaction vessel heated to 37° C. in a water bath, 0.392 mL of phosphate buffer (0.1 mol/L, pH 7.4) containing human hepatic microsomes (1 mg/mL, Xenotech) and NADPH-Co-factor (NADP+1.3 mmol/L, BD-Bioscience) was added and pre-incubated for 5 minutes. A 50% acetonitrile solution (0.008 mL) containing 0.05 mmol/L of a test compound was added thereto to initiate the enzyme reaction (final concentration of the test compound: 0.001 mmol/L). Immediately after initiation of the reaction and at 60 minutes thereafter, 0.050 mL of the reaction solution was respectively collected, which was immediately added to an acetonitrile solution (0.2 mL) containing an internal standard (45 nmol/L, 1-[3-(3,5-dimethylphenyl)-4-quinolinyl]-4-piperidineamine) to terminate the enzyme reaction.
The residual rate (%), which is indicative of stability of the test compound, was calculated using the ratio of peak areas between the test compound and the internal substance determined by LC/MS/MS (TSQ Quantum Discovery MAX, Thermo) analysis of the sample thus prepared by the above procedures followed by filtration, and the equation: {[residual rate (%)=[peak area of a test compound in a sample at 60 minutes after initiation of the reaction/peak area of the internal standard]/[peak area of the test compound in the sample immediately after initiation of the reaction/peak area of the internal standard]×100}.

[2] = molecular target: T1, human SSTR2 (Homo sapiens, UniProt P30874); assay: Evaluation of SSTR2 agonistic activity using cells expressing human SSTR2 (suppression of forskolin-stimulated cAMP production, SSTR2-CHO-K1); assay type: cell-based
T1 construct: Myc; expressed in transfected cells
Protocol: Evaluation of SSTR2 Agonistic Activity Using Cells Expressing Human SSTR2
(1) Isolation of Human SSTR2 Gene
Human brain cDNA was purchased from Ambion (catalogue No.: 7962; Lot No.: 040200121). PCR primers, hSSTR2_F1_XhoI: 5′-[…]-3′ (SEQ ID NO: 1) and hSSTR2_R1_EcoRI: 5′-[…]-3′ (SEQ ID NO: 2) were designed on the basis of the sequence GenBank NM_001050.
PCR reaction (95° C. for 2 min.→[98° C. for 10 sec., 60° C. for 30 sec. and 68° C. for 90 sec.]×30 cycles) was carried out using the human brain cDNA as a template and using KOD-plus-(TOYOBO Co., Ltd.). The amplified PCR product was subjected to 1% agarose gel electrophoresis, purified using QIAquick Gel Extraction Kit (QIAGEN) and digested with restriction enzymes XhoI and EcoRI. The digested fragments were ligated to an expression vector (pIRESneo-Myc) using the DNA Ligation Kit Ver. 2 (Takara) and used for transformation of E. coli DH5a. The plasmid pIRESneo-Myc/hSSTR2 was prepared and the DNA sequence thereof was confirmed.
(2) Culture of CHO-K1 Cells
CHO-K1 (−) was cultured in Ham's F-12 medium (containing foetal bovine serum (10%), penicillin (100 U/mL) and streptomycin (0.1 mg/mL)). The transduced cells were cultured in the same medium supplemented with Geneticin (1 mg/mL).
(3) Transduction of CHO-K1 Cells
CHO-K1(−) cells were transduced with the plasmid pIRESneo-Myc/hSSTR2 using Lipofectamine 2000 (Invitrogen). After 48 hours, selection was carried out by replacing the medium with the one containing 1 mg/mL of Geneticin to establish a stable overexpressing cell line (SSTR2-CHO-K1).
(4) Evaluation of SSTR2 Agonistic Activity
The human SSTR2 agonistic activity of a test compound was evaluated according to the following procedures by using a suppression activity of intracellular cyclic AMP (cAMP) production by forskolin stimulation as an index. SSTR2-CHO-K1 cells suspended in Ham's F-12 medium (containing foetal bovine serum (10%), penicillin (100 U/mL) and streptomycin (0.1 mg/mL)) supplemented with 0.25 mg/mL of Geneticin were inoculated into a 96-well plate at a density of 4.0×10^4 cells/0.1 mL per well. On the next day, the medium was removed and washed twice with 0.1 mL of wash buffer [0.1% bovine serum albumin (BSA), 20 mmol/L 4-(2-hydroxyethyl)-1-piperazineethane sulphonic acid (HEPES)-containing Hank's balanced salt solution (HBSS)]. An assay buffer [[…] 3-isobutyl-1-methylxanthine (IBMX), 0.1% BSA, 20 mmol/L HEPES-containing HBSS] was added to the wells at 0.06 mL per well and the plate was incubated for 15 minutes under the conditions of 5% carbon dioxide and 37° C. Thereafter, an assay buffer containing a test compound at a concentration twice as high as the final concentration and 0.02 mmol/L of forskolin was added to wells at 0.06 mL per well and the plate was incubated for 30 minutes under the conditions of 5% carbon dioxide and 37° C. Thereafter, the Assay/Lysis buffer included in the cAMP-Screen® kit (available from Applied Biosystems) was added to wells at 0.12 mL per well and the plate was incubated for 30 minutes under the conditions of 5% carbon dioxide and 37° C. The concentration of cAMP in samples were measured by ELISA according to the instruction of the kit.

[3] = test system: growth hormone (GH) secretion; assay: Evaluation of suppression of growth hormone (GH) secretion using rats (GHRH-induced); assay type: in vivo; conditions: Rattus norvegicus, Procedure (B): oral administration 8 hours beforehand, read-out: percentage of suppression of GH secretion
Protocol: Evaluation of Suppression of Growth Hormone (GH) Secretion Using Rats
[Procedure (A): Administration of a Test Compound 30 Minutes Beforehand]
A medium (distilled water (Otsuka distilled water, Otsuka Pharmaceutical Factory, […]) IGS rats (Charles River Laboratories Japan, Inc.)) and after 27 minutes, the animals were administered with 50 mg/kg of pentobarbital sodium (Somnopentyl, Kyoritsu Seiyaku Corporation) via the tail vein for anaesthesia. Three minutes after administration of pentobarbital sodium, the rats were administered with 0.01 mg/kg of growth hormone-releasing hormone (GHRH, Bachem) via the tail vein to induce GH secretion. In order to measure the blood GH concentration, 0.2 mL of blood was collected through the jugular vein at 5 minutes after administration of GHRH. The collected blood was centrifuged at 4° C., 13,000×g for 5 minutes to obtain plasma. The blood GH concentration was measured by using Rat/Mouse Growth Hormone ELISA (Millipore) following the instruction of the kit. The percentage (%) of suppression of GH secretion was determined by using the obtained blood GH concentration and the equation {[suppression (%) of GH secretion]=([blood GH concentration of the group administered with the medium]−[blood GH concentration of the group administered with a test compound])/[blood GH concentration of the group administered with the medium]×100}. In the equation, the group administered with the medium represents the group of animals administered with the medium and the group administered with a test compound represents the group of animals administered with a test compound dissolved in the medium.
[Procedure (B): Administration of a Test Compound 8 Hours Beforehand]
A medium (distilled water (Otsuka distilled water, Otsuka Pharmaceutical Factory, […]) IGS rats (Charles River Laboratories Japan, Inc.)) and after 7 hours and 57 minutes, the animals were administered with 50 mg/kg of pentobarbital sodium (Somnopentyl, Kyoritsu Seiyaku Corporation) via the tail vein for anaesthesia. Three minutes after administration of pentobarbital sodium, the rats were administered with 0.01 mg/kg of growth hormone-releasing hormone (GHRH, Bachem) via the tail vein to induce GH secretion. The rest of the procedure is the same as in [Procedure (A)] described above.

[4] = Evaluation of cytotoxicity using cultured human hepatocytes (intracellular ATP); assay type: cell-based; conditions: read-out: IC50 of cytotoxicity (concentration at which 50% of the luminescence is suppressed)
Protocol: Evaluation of Cytotoxicity Using Cultured Human Hepatocytes
Frozen adhesive human hepatocytes were thawed, suspended in a hepatocellular medium (HCM) purchased from Lonza and inoculated to a 96-well plate coated with collagen. The culture medium of the hepatocytes cultured overnight in an incubator (5% carbon dioxide, 95% air, 37° C.) was exchanged to the medium containing a test compound at a concentration of 0, 12.5, 25, 50, 100, 200 or 400 (×10^−6 mol/L) and the cells were further cultured for 24 hours. Cytotoxicity was evaluated by measuring the intracellular ATP concentration. Specifically, using the Promega Celltiter-Glo luminescent assay kit available from Promega, cells were lysed in the assay buffer included in the kit and the concentration of ATP released from the cells was measured according to the luminescence resulting from luciferin-luciferase enzyme activity. The luminescence was measured on the SpectraMax plate reader from Molecular Devices. The extent of cytotoxicity of a test compound is represented by the concentration (IC50) of the compound at which 50% of the luminescence is suppressed.

T1 sequence (P30874 whole entry): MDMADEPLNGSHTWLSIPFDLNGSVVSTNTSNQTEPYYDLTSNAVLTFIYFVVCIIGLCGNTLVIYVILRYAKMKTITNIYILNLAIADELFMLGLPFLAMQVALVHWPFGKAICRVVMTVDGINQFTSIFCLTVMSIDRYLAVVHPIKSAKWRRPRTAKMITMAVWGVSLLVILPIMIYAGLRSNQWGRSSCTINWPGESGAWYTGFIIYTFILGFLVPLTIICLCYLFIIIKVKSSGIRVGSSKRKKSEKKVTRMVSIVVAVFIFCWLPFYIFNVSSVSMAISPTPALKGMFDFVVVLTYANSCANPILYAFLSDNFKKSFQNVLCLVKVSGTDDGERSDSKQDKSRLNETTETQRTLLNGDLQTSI

Row | residual rate [1] [%] | EC50 [2] [nM] | SMILES | inhibition in vivo at 3 mg/kg ([3]; 3 mg/kg) [%] | IC50 at 24 h [4] [nM] | inhibition in vivo at 1 mg/kg [3] [%]
1 | 92.9 | 0.26 | COc1ccc(F)cc1C(=O)Nc1cncc(-c2cc(Cl)cc(Cl)c2)c1N1CCC(N)CC1 [Example 7(1), N-[4-(4-amino-1-piperidinyl)-5-(3,5-dichlorophenyl)-3-pyridinyl]-5-fluoro-2-methoxybenzamide] | 88 | 34000 | 
2 |  | 0.17 | CO[C@@H]1CN(c2c(-c3ccc(C(F)(F)F)cc3)cncc2-c2cc(Cl)cc(Cl)c2)CC[C@@H]1N (racemic) [Example 2(7), rac-(3R,4S)-1-{3-(3,5-dichlorophenyl)-5-[4-(trifluoromethyl)phenyl]-4-pyridinyl}-3-methoxy-4-piperidineamine] |  |  | 
3 | 53.1 | 0.05 | N#CC1(c2ccc(-c3cncc(-c4cc(Cl)cc(Cl)c4)c3N3CC[C@@H]4NCCO[C@H]4C3)cc2)CC1 [Example 2(5), 1-(4-{5-(3,5-dichlorophenyl)-4-[(4aS,8aS)-octahydro-6H-pyrido[3,4-b][1,4]oxazin-6-yl]-3-pyridinyl}phenyl)cyclopropanecarbonitrile] |  | 19000 | 85
4 | 85.2 | 0.04 | C/C(=C\c1cncc(-c2cc(Cl)cc(Cl)c2)c1N1CCC(N)CC1)c1cccc(F)c1 [Example 3, 1-{3-(3,5-dichlorophenyl)-5-[(1E)-2-(3-fluorophenyl)-1-propen-1-yl]-4-pyridinyl}-4-piperidineamine] |  | 36000 | 88
5 | 48.4 | 0.097 | Fc1cccc(/C=C/c2cncc(-c3cc(Cl)cc(Cl)c3)c2N2CC[C@@H]3NCCO[C@H]3C2)c1 [Example 3(2), (4aS,8aS)-6-{3-(3,5-dichlorophenyl)-5-[(E)-2-(3-fluorophenyl)vinyl]-4-pyridinyl}octahydro-1H-pyrido[3,4-b][1,4]oxazine] |  | 17000 | 84
6 | 1.2 |  | Cc1cc(C)cc(-c2cncc(-c3nc4c(C)cc(C)cc4[nH]3)c2N2CCC(N)CC2)c1 [formula (P), reference compound] |  |  | 
7 | 88.6 | 0.071 | CCNC1CCN(c2c(/C=C(\C)c3cccc(F)c3)cncc2-c2cc(Cl)cc(Cl)c2)CC1 [Example 5(5), 1-{3-(3,5-dichlorophenyl)-5-[(1E)-2-(3-fluorophenyl)-1-propen-1-yl]-4-pyridinyl}-N-ethyl-4-piperidineamine] |  | 17000 | 85
8 | 79.7 | 0.047 | CCNC1CCN(c2c(/C=C(\C)c3cccc(C#N)c3)cncc2-c2cc(Cl)cc(Cl)c2)CC1 [Example 5, 3-[(1E)-1-{5-(3,5-dichlorophenyl)-4-[4-(ethylamino)-1-piperidinyl]-3-pyridinyl}-1-propen-2-yl]benzonitrile] |  | 18000 | 90
9 | 100.0 | 0.013 | N#CC1(c2ccc(-c3cncc(-c4cc(Cl)cc(Cl)c4)c3N3CCC(N)CC3)cc2)CC1 [Example 2(2), 1-{4-[4-(4-amino-1-piperidinyl)-5-(3,5-dichlorophenyl)-3-pyridinyl]phenyl}cyclopropanecarbonitrile] |  | 11000 | 93
10 |  | 0.47 | CO[C@@H]1CN(c2c(-c3ccc(C(F)(F)F)cc3)cncc2-c2cc(Cl)cc(Cl)c2)CC[C@H]1N (racemic) [Example 2(6), rac-(3R,4R)-1-{3-(3,5-dichlorophenyl)-5-[4-(trifluoromethyl)phenyl]-4-pyridinyl}-3-methoxy-4-piperidineamine] |  |  | 
11 | 89.9 | 0.027 | N[C@@H]1CCN(c2c(-c3ccc(C(F)(F)F)cc3)cncc2-c2cc(Cl)cc(Cl)c2)C[C@@H]1O [Example 6, (3S,4R)-4-amino-1-{3-(3,5-dichlorophenyl)-5-[4-(trifluoromethyl)phenyl]-4-pyridinyl}-3-piperidinol] |  |  | 89
12 |  |  | Cc1cc(C)cc(-c2cnc3cc(Cl)c(-c4cnn(C)c4)cc3c2OCC[C@H]2CCCCN2)c1 [formula (M), reference compound] |  | 13000 | 
13 | 49.9 | 0.038 | N#Cc1cccc(/C=C/c2cncc(-c3cc(Cl)cc(Cl)c3)c2N2CCC(N)CC2)c1 [Example 4(1), 3-{(E)-2-[4-(4-amino-1-piperidinyl)-5-(3,5-dichlorophenyl)-3-pyridinyl]vinyl}benzonitrile] |  |  | 84
